Results on 10 molecules are retold here after ChEMBL document CHEMBL1949629, “Discovery of a second generation agonist of the orphan G-protein coupled receptor GPR119 with an improved profile” (Bioorg Med Chem Lett, 2012).

Data set [1] can be described thus: Solubility in 20% HPbetaCD after 24 hrs. It counts as physicochemical.
A short description of data set [2]: Clearance in iv dosed Sprague-Dawley rat. It is filed as ADME, organism-based. Conditions: in vivo.
The nature of data set [3]: Clearance in iv dosed Cynomolgus monkey. Conditions: in vivo. It is filed as ADME, organism-based, Macaca fascicularis.
Data set [4] is described as follows: Clearance in iv dosed Beagle dog. It counts as ADME, organism-based, Canis lupus familiaris. Conditions: in vivo.
Data set [5] in a line: Clearance in iv dosed Zucker fa/fa rat. It counts as ADME, organism-based. Conditions: in vivo.
Data set [6] can be described thus: Clearance in iv dosed Swiss albino mouse. Conditions: in vivo. It is filed as ADME, organism-based.
Data set [7] is described as follows: Solubility in 40% HPbetaCD after 24 hrs. It counts as physicochemical.
The next data set has as its target Cytochrome P450 2C9 (Homo sapiens, UniProt P11712). In words: Inhibition of CYP2C9. It is filed as ADME.

Each structure is given as a SMILES string. pIC50: −log10 of the molar value. ≈ marks a conversion by molar mass, not a printed value.

Sequence of Cytochrome P450 2C9 (P11712 whole entry): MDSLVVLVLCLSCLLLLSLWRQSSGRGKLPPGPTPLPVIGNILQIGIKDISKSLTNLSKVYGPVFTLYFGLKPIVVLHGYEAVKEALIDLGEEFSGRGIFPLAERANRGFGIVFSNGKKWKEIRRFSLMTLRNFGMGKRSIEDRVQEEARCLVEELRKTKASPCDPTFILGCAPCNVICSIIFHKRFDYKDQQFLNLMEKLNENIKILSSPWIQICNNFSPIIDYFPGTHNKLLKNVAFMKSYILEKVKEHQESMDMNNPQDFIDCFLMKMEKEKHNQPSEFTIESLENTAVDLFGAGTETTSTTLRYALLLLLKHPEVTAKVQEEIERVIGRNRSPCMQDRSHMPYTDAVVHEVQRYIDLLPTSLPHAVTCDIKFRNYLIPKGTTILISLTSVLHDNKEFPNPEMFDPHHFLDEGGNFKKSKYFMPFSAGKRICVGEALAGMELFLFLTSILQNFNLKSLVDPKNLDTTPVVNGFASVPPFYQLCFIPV

The term solubility denotes the concentration that dissolves in the medium under given conditions. The molecule `CCc1c(Nc2ccc(S(C)(=O)=O)nc2C)ncnc1OC1CCN(C(=O)OC(C)C)CC1` came in with a solubility at 24 h in data set [1] of 24.5 mg/mL (≈ 51.3 mM).
In turn, `Cc1cc(S(C)(=O)=O)ncc1Nc1ncnc(OC2CCN(C(=O)OC(C)C)CC2)c1C` showed a solubility at 24 h in data set [1] of 20.4 mg/mL (≈ 44 mM).
`Cc1c(Nc2ccc(S(C)(=O)=O)nc2)ncnc1OC1CCN(C(=O)OC(C)C)CC1` returned a solubility at 24 h in data set [1] of 21.3 mg/mL (≈ 47.4 mM).
Same read-out and setting: the result for `CCOc1c(Nc2ccc(S(C)(=O)=O)nc2C)ncnc1OC1CCN(C(=O)OC(C)C)CC1` reads 3.3 mg/mL (≈ 6.69 mM); that for `Cc1nc(S(C)(=O)=O)ccc1Nc1ncnc(OC2CCN(C(=O)OC(C)C)CC2)c1OC(F)F`, 7.8 mg/mL (≈ 15.1 mM); that for `Cc1nc(S(C)(=O)=O)ccc1Oc1ncnc(OC2CCN(C(=O)OC(C)C)CC2)c1C`, 6.7 mg/mL (≈ 14.4 mM).
What is called clearance is a measure of how efficiently the substance is removed, as volume per time. In the case of `CC(C)OC(=O)N1CCC(Oc2ncnc3c2cnn3-c2ccc(S(C)(=O)=O)cc2F)CC1`, the clearance is 20 mL/min/kg in data set [2]; 1.83 mL/min/kg in data set [3]; 2 mL/min/kg in data set [4]; 7.33 mL/min/kg in data set [5]; 3.83 mL/min/kg in data set [6].
`Cc1nc(S(C)(=O)=O)ccc1Nc1ncnc(OC2CCN(C(=O)OC(C)C)CC2)c1C#N`: the concentration in solution in data set [1] (solubility at 24 h) came to 17 mg/mL (≈ 35.8 mM).
For `Cc1ncccc1Oc1ncnc(OC2CCN(C(=O)OC(C)C)CC2)c1C`, the solubility at 24 h in data set [1] and in data set [7] was 15.9 mg/mL (≈ 41.1 mM) in each case.
By pIC50 is commonly meant the negative decadic logarithm of the IC50, by convention in mol/L. `Cc1c(Oc2ccc(S(C)(=O)=O)cc2F)ncnc1OC1CCN(C(=O)OC(C)C)CC1` had a pIC50 against Cytochrome P450 2C9 of 5.28. Also, the solubility at 24 h in data set [1] and in data set [7] was 1.1 mg/mL (≈ 2.35 mM) throughout.
